In patent US12263200B2, “Specific nutritional or therapeutic agent including a mixture of grape and blueberry” (priority 2015, dated 2025):

Tested on: SK-N-SH cells
Experiment: Test 3: protection of neuronal cells against hydrogen peroxide (LDH cell death test, Resazurin cell survival test)
Assay type: cell-based, human
Settings: for protection of cells against hydrogen peroxide, cumulative treatment, polyphenols taken individually (cell survival, Resazurin test): 1 μM, 1 nM and 1 pM for 3 consecutive days, then hydrogen peroxide 250 μM, analyzed 24 hours later; for protection of cells against hydrogen peroxide, acute treatment (cell death LDH release, survival Resazurin test): toxic hydrogen peroxide (250 μM), co-treated 24 hours at 1 μM, 1 nM and 1 pM
Experimental: For this, SK-N-SH cells, a cell line of human neuroblasts, were kept in a MEM supplemented with 10% (v/v) FBS, 100 U/ml of penicillin, 100 μg/ml of streptomycin and 1% sodium pyruvate (1 mM) in a humidified incubator at 37° C. with 5% CO2. The cells were grown to 80% confluence then seeded in multi-well cell culture plates to create different experimental models. The neuroprotective effect of the different compounds was analyzed by two different and complementary tests: the cell death quantification test and the cell survival test.
The cell death test is a colorimetric test based on measuring the activity of the lactate dehydrogenase (LDH) released by the cytosol from damaged cells in the supernatant.
The cell survival test was performed by conducting a Resazurin Test. Resazurin is an oxidation-reduction indicator of the permeable cell that can be used to monitor the number of viable cells by using tetrazolium compounds. The viable cells with an active metabolism can reduce resazurin into a resorufin product that is pink and fluorescent.
SK-N-SH neuronal cells were subjected to a toxic concentration of hydrogen peroxide (250 μM) and co-treated with epicatechin, catechin or ferulic acid at 1 μM, 1 nM and 1 pM for 24 hours. On completing the treatment, the cells were washed twice and cell death (release of LDH) and survival (Resazurin test) were analyzed.
In order to study the synergistic effect of epicatchin, catechin and ferulic acid, the SK-N-SH neuronal cells were subjected for 24 hours to a toxic concentration of hydrogen peroxide and co-treated with a mix comprising epicatechin, catechin and ferulic acid, said mix being tested at the different concentrations of 1 μM, 1 nM or 1 pM. On completing the treatment, the cells were washed twice and the cell death (release of LDH) and survival (Resazurin test) were analyzed.
The neuroprotective effects of the three polyphenols, i.e. epicatechin, catechin and ferulic acid, with a cumulative treatment, were then studied. The SK-N-SH cells were grown to 80% confluence then seeded in multi-well cell culture plates. […] On the third day, the cells were subjected to a toxic concentration of hydrogen peroxide (250 μM) and the protection was analyzed 24 hours later. On completing the treatment, the cells were washed twice and cell survival (Resazurin test) was analyzed.
In order to study the synergistic effect of epicatechin, catechin and ferulic acid, the SK-N-SH cells were grown to 80% confluence then seeded in multi-well cell culture plates. […] On the third day, the cells were subjected to a toxic concentration of hydrogen peroxide (125 μM and 250 μM) and the protection was analyzed 24 hours later. On completing the treatment, the cells were washed twice and cell survival (Resazurin test) was analyzed. […]

Compound | protection of cells against hydrogen peroxide, cumulative treatment, polyphenols taken individually (cell survival, Resazurin test) | protection of cells against hydrogen peroxide, acute treatment (cell death LDH release, survival Resazurin test)
COc1cc(/C=C/C(=O)O)ccc1O [ferulic acid] | do not protect the cells against hydrogen peroxide | do not protect the cells against hydrogen peroxide
catechin | do not protect the cells against hydrogen peroxide | do not protect the cells against hydrogen peroxide
